Source: patent publication US20110275709A1, “TELLURIUM-CONTAINING COMPOUNDS FOR AFFECTING MALE'S FERTILITY FOLLOWING CHEMOTHERAPY AND/OR RADIOTHERAPY” (BIOMAS LTD., priority 2009, published 2011)
Entries after “also recorded” stand apart in the source; their conditions may differ. Read-outs that look alike come from different tables or passages of the source. Marks after values point to notes of the source that are not given here.

Columns and labels:
Balb/c male mice [1] = format: in vivo; conditions: Cy 200 mg/kg ip weekly for 5 weeks, AS101 10 μg/mouse ip every other day; for testicular histology (seminiferous tubules, cross sections): FIGS. 7A-7D
Protocol: (§1) The removed testes were pierced with a needle and fixed in Bouin's fixative. After 24 hours, testes were washed three times and maintained in 70% ethanol. Samples were then embedded in paraffin and sectioned. Tissue sections (5 μm) were then stained using hematoxylin/eosin and examined randomly under a light microscope (AX70, Olympus, Tokyo, Japan) under ×100 magnification.
(§2) Ten mice were injected intraperitoneally (ip) with 200 mg/kg of cyclophosphamide (Cy) once a week for a period of 5 weeks (Cy group).
(§3) Another ten mice (Cy+AS101 group) were co-treated with Cy as described for the Cy group and with i.p. injections of AS101 at a dosage of 10 μg/mouse every other day, starting 1 week before the first Cy injection and continuing during the 5 weeks of Cy treatment.
(§4) An additional group of ten mice were injected with PBS only (PBS group), and another ten mice were treated with i.p. injections of AS101 at a dosage of 10 μg/mouse every other day (AS101 group), as described for the Cy+AS101 group. The animals from all groups were sacrificed 5 weeks after the last injection by cervical dislocation, and body weights were determined; thereafter, epididymides and testes were quickly dissected out, weighed and fixed.

Balb/c male mice [2] = conditions: Cy 200 mg/kg ip once a week for 5 weeks; for Body weight / Epididymis weight / Epididymis weight (normalized to body weight) / Testes weight / Testes weight (normalized to body weight) / Sperm concentration: AS101 10 μg/mouse ip every other day; for Body weight / Epididymis weight / Epididymis weight (normalized to body weight) / Testes weight / Testes weight (normalized to body weight): sacrificed 5 weeks after last injection; for Sperm concentration: epididymal sperm
Protocol: In order to recover the motile epididymal spermatozoa, the two caudal epididymides were placed in M2 medium (Sigma), minced with fine scissors and incubated at 37° C. in an atmosphere of 95% air and 5% CO2 for 15 minutes prior to careful removal of all medium. Samples were then diluted to a final volume of 1 ml in M2. The concentration of sperm cells in the medium was then evaluated using a hemocytometer, and the samples were frozen at −80° C.
as §2, §3, §4
Body weight, testes weight, testes weight normalized to body weight, epididymis weight, epididymis weight normalized to body weight, and sperm concentration were determined for the mice of each of the 4 treatment groups.

[3] = test system: tumor models in mice and humans; conditions: cited from earlier work
mice = conditions: cited from earlier work
cancer patients = conditions: AS101 in combination with chemotherapy; cited from earlier work
Balb/c male mice [4] = experiment: Effect of treatments on testicular weight (procarbazine-induced testicular damage); format: in vivo; conditions: AS101 10 μg/mouse ip every other day, FIG. 3
From the text: Inbred Balb/c male mice, aged 5-6 weeks, were used. To ensure the fertility of the mice, each mouse was placed with two young healthy females.
(§5) The administration protocols for the four groups are depicted in FIG. 1.
Weights were normalized to the weight of the mouse. Each group contained 10 mice.

[5] = test system: phosphorylated GSK-3β (pGSK-3β); format: in vivo, mice; conditions: of the PBS group; testes homogenate, densitometry; FIGS. 13A-B
Protocol: (§6) Frozen testes were homogenized in 1 ml of RIPA lysis buffer containing protease inhibitor cocktail and phosphatase inhibitor cocktail II. The tissue was then pulverized with a Dounce homogenizer and the homogenate subjected to centrifugation at 14,000 g for 15 minutes. The supernatant was collected and used for protein determination using Bradford reagent. Tissue samples were denatured in reducing buffer (62 mM Tris [pH 6.8], 10% glycerol, 2% sodium dodecyl sulfate [SDS], 5% f3-mercaptoethanol and 0.003% bromophenol blue) and separated by electrophoresis on an SDS (12%) polyacrylamide gel at 35 mA. The separated proteins were transferred onto a nitrocellulose membrane using the transfer buffer (39 mM glycine, 48 mM Tris [pH 8.3] and 20% methanol) at 20 V at 4° C. overnight. The membranes were stained with Ponceau S (0.005% in 1% acetic acid) to confirm equal amounts of protein, and blocked with 5% non-fat dry milk in Tris buffered saline with 0.1% TWEEN (TBS-T) for 1 hour at room temperature, and washed three times for 10 minutes each time in TBS-T. The following primary rabbit monoclonal antibodies were used: anti-human phospho-Akt1/2/3, anti-human GSK-3β and anti-human phospho-GSK-3β. Mouse antibody against chicken α-tubulin was used in order to confirm that the protein load was similar in all lanes. Membranes were incubated with the appropriate diluted antibody overnight at 4° C. After being washed three times for 10 minutes each time in TBS-T, the membranes were incubated for 1 hour at room temperature with peroxidase-conjugated goat anti-rabbit or goat anti-mouse IgG antibody. After washing, the membranes were analyzed by an enhanced chemiluminescence system according to the manufacturer's protocol (Pierce). Densitometry was conducted in order to quantify differences in band intensity using the Image J image-processing program (NIH, Bethesda, Md., USA). Results were normalized by comparison to the values in the PBS control group in each membrane.
(§7) Phosphorylation of Akt and GSK-3β was determined using gel electrophoresis and Western blotting, as described in the Materials and Methods section.

[6] = test system: phosphorylated Akt (pAkt); format: in vivo, mice; conditions: relative to the PBS group; testes homogenate, densitometry; FIGS. 12A-B
Protocol: as §6, §7

Balb/c male mice [7] = format: in vivo; conditions: females mated with treated males, Cy 200 mg/kg ip weekly for 5 weeks
Protocol: (§8) Fertility assays were performed on the “chemotherapy only” group, “chemotherapy+AS101” group, and control (PBS) group. Each male was placed with three young virgin females, aged 6 weeks. These females were examined daily for vaginal plugs. Once mating was documented, females were separated, and the pregnancies allowed to progress. […] The number of pregnant females and litter size was noted.
as §2, §3, §4

sperm nuclear DNA = format: in vivo, mice; conditions: Cy 200 mg/kg ip weekly for 5 weeks; AS101 10 μg/mouse ip every other day; FIG. 9
Protocol: as §2, §3, §4

testicular cells = experiment: Analysis of testicular damage by DNA flow cytometry (procarbazine); format: in vivo; conditions: PCB single dose 200 mg/kg; propidium iodide flow cytometry; 5 mice per group; FIG. 6
Protocol: Quantification of DNA content in testicular cell populations by propidium iodide staining followed by flow cytometry is an objective, rapid, and robust method for the analysis spermatogenic damage. The method provides quantitative values for evaluating the changes in the proportion in the number of 1N (mature and immature haploid), 2N (diploid), and 4N (tetraploid) cells in the testis. The method was performed as previously described (Malkov at al., 1998). Briefly, testes were dissected, decapsulated, and the contents of the testes were transferred into a tube containing 5 ml ice-cold separation medium. Then, a collagenase solution was added and incubation was carried out for 5 minutes at 37° C. under vigorous shaking. The seminiferous cords were allowed to sediment to the bottom of the tube while being incubated on ice. The seminiferous cords were washed twice in 10 ml separation medium, re-suspended in separation medium containing 2.5 mg/ml trypsin and 1U/ml DNase I, incubated for 2 minutes at 37° C., and transferred to ice. Using a Pasteur pipette, the seminiferous cords was disintegrated into single cells and were then filtered through a […] nylon mesh, washed twice with separation medium (centrifugation at 200-300 g), and counted. For FACS analysis, testicular cells were brought to a concentration of 2-3×10^6 cells/ml in separation medium and diluted 1:1 with propidium iodide solution (10 mM Tris pH 8, 1 mM NaCl, 0.1% Nonidet P-40, 0.7 mg/ml Rnase A, and 0.05 mg/ml propidium iodide). Cells were analyzed by a Becton-Dickinson (San Francisco, Calif.) FACSort instrument, equipped with an argon laser, within 2 hours from staining. Excitation was at 488 nm and emission at 585 nm. The parameters measured for each cell were forward scatter (FSC-H), side scatter (SSC-H), and total fluorescence emitted from the cell (FL2-A).
(§9) Each group contained 5 mice.

Balb/c male mice [8] = experiment: Histological evaluation of testicular damage (procarbazine); format: in vivo; conditions: three weekly injections of 200 mg/kg PCB; 5 mice per group; FIGS. 2A-2C
Protocol: as §1, §5, §9

Balb/c male mice [9] = experiment: Evaluation of male fertility (procarbazine); format: in vivo; conditions: females mated with treated males, PCB single dose 200 mg/kg
Protocol: as §8
Each group contained 5 male mice.

Row | SMILES | testicular histology (seminiferous tubules, cross sections) (Balb/c male mice [1]) | Body weight (Balb/c male mice [2]) | Epididymis weight (Balb/c male mice [2]) | Epididymis weight (normalized to body weight) (Balb/c male mice [2]) | Testes weight (Balb/c male mice [2]) | Testes weight (normalized to body weight) (Balb/c male mice [2]) | Sperm concentration (Balb/c male mice [2]) | level of phosphorylated GSK-3β (pGSK-3β) [5] | average level of phosphorylated Akt (pAkt) [6] | further results
1 | Cl[TeH]1(Cl)(Cl)OCCO1.N [AS101, ammonium trichloro(dioxyethylene-O,O′)tellurate] | normal cellular content; also recorded: no effect on testicular histology | 26.2 ± 1.0 gram | 34.2 ± 4.2 mg | 1.3 ± 0.1 mg/gram body weight | 105.7 ± 14.7 mg | 4.3 ± 0.3 mg/gram body weight | 22.5 ± 3.8 10^6 cells/ml | 130.3±16.9% | 175.3±28.4% | combination effect with Cy ([3]; treatment of tumor-bearing mice): synergistic effect with Cy; anti-tumoral effect ([3]; variety of tumor models in mice and humans): clear anti-tumoral effect; protection from hematopoietic damage (mice; lethal and sublethal doses of chemotherapeutic drugs, including cyclophosphamide): protect mice from hematopoietic damage; survival of mice (mice; mice treated with various cytotoxic drugs or radiation): increase the survival of mice; severity of neutropenia, thrombocytopenia and alopecia that accompany chemotherapy (cancer patients): significant reduction in the severity of neutropenia, thrombocytopenia, and alopecia; effect of AS101 alone on testicular weight (Balb/c male mice [4]; no PCB): no significant effect
2 | O=P1(N(CCCl)CCCl)NCCCO1 (stereo not drawn) [Cy, cyclophosphamide] | empty and atrophic seminiferous tubules | 22.8 ± 2.1 gram | 25.1 ± 2.9 mg | 1.1 ± 0.1 mg/gram body weight | 46.3 ± 8.7 mg | 1.98 ± 0.16 mg/gram body weight | 8.7 ± 1.6* 10^6 cells/ml | 36.4±12.5% | 55.3±25.6% | average percentage of damaged seminiferous tubules (Balb/c male mice [1]; FIG. 8): 76.0±10.8%; deaths (Balb/c male mice [2]): no deaths occurred; percentage of impregnated females (Balb/c male mice [7]; FIG. 10): 20.0±4.2%; litter size of females which did achieve pregnancy (Balb/c male mice [7]; FIG. 11): 4.3±1.4; percentage of sperm cells with abnormal chromatin structure (% DFI) (sperm nuclear DNA): 44.7±1.0%
3 | CNNCc1ccc(C(=O)NC(C)C)cc1 [PCB, Procarbazine] |  |  |  |  |  |  |  |  |  | percentage of cells with 1N (haploid) DNA in the testes (testicular cells): 24.2±4.0%; percentage of cells with 2N (diploid) DNA in the testes (testicular cells): 54.9±4.2%; percentage of cells with 4N (tetraploid) DNA in the testes (testicular cells): 4.7±0.4%; testicular histology (hematoxylin/eosin sections) (Balb/c male mice [8]): empty and atrophic seminiferous tubules; litter size (Balb/c male mice [9]; 5 male mice per group, FIG. 4): 1.4±2.9; percentage of impregnated females (Balb/c male mice [9]; FIG. 5): 20%; average testicular weight (Balb/c male mice [4]; PCB single dose 200 mg/kg, normalized to mouse weight, 10 mice per group): 1.9±0.2 mg per grams body weight
